Bridge positions count the residues as written; N and C are the ends. Peptide text beside a SMILES is read from it.
Tests used:
Assay type in all cases: cell-based
hNaV1.2 = molecular target: T1, hNaV1.2 (Homo sapiens, UniProt Q99250); assay: Automated whole-cell patch-clamp (QPatch 16X), hNaV1.2; conditions: for IC50: HEK293 cells expressing hNaV1.2 + β1 subunit, QPatch 16X, holding −80 mV, step to 0 mV, peptide incubated 2 min, 0.1% BSA, mean, SEM and n (2-7)
T1 construct: host or cells: HEK293
Method: (§1) Human embryonic kidney 293 (HEK293) cells stably expressing recombinant hNaV1.2, hNaV1.3 and hNaV1.7 and the β1 auxiliary subunit (Scottish Biomedical Drug Discovery, Glasgow, UK) were cultured in Minimal Essential medium (MEM) (Sigma-Aldrich, MO, United States) supplemented with 10% v/v FBS-New Zealand origin (Assay Matrix), 2 mM L-glutamine and selection antibiotics as per manufacturer’s recommendation. The HEK293 cells heterologously expressing mNaV1.7 and F813G-mNaV1.7 were generously provided by Prof Irina Vetter and were cultured in Minimal Essential medium (MEM) (Sigma-Aldrich, MO, United States) supplemented with 10% v/v FBS-New Zealand origin (Assay Matrix), 2 mM L-glutamine and hygromycin 100 μg/mL.
(§2) NaV channel currents from HEK293 cells stably expressing NaV subtypes and the β1 auxiliary subunit were recorded using an automated whole-cell patch clamp system QPatch 16X (Sophion Bioscience A/S, Ballerup, Denmark). As per the manufacturer’s guidelines, the cells were cultured for 48 h to achieve ∼80% confluency, detached using Detachin (Genlantis) and resuspended to 5 × 10^6 cells/mL in serum free media [CHO-cell SFM (Life Technologies), 25 mM HEPES and 100 U/mL penicillin/streptomycin]. The extracellular solution comprised (in mM) 1 CaCl2, 1 MgCl2, 5 HEPES, 3 KCl, 140 NaCl and 20 TEA-Cl, with the pH adjusted to 7.3 with NaOH. The intracellular solution comprised (in mM) 140 CsF, 1 EGTA, 5 CsOH, 10 HEPES and 10 NaCl, with the pH adjusted to 7.3 with CsOH. The osmolarity of both solutions were adjusted to 320 mOsm with sucrose. Compounds were prepared in extracellular solution containing 0.1% bovine serum albumin (Sigma-Aldrich). To obtain the dose-response curves, cells were maintained at a holding potential −80 mV and Na^+ currents were elicited by […] voltage steps to 0 mV from a −120 mV conditioning pulse applied for […]. Increasing concentrations of the peptide were incubated with the cells at the holding potential for 2 min before the voltage protocol was applied.
(§3) The experimental data were analysed using QPatch Assay software v5.6.4 and GraphPad Prism 7.0 using a four-parameter Hill equation [Y = Bottom + (Top—Bottom)/(1 + 10^(Log IC50—X)* Hillslope)] to fit concentration response curves by non-linear regression analysis and Student’s t-test. Data are presented as means ± standard error of mean (SEM) with number of independent experiments stated and p < 0.05 is considered statistically significant. Statistically insignificant shift in the activity is denoted by “little” while small but statistically significant shift in the activity is denoted by “slight” throughout the manuscript.

hNaV1.3 = molecular target: T2, hNaV1.3 (Homo sapiens, UniProt Q9NY46); assay: Automated whole-cell patch-clamp (QPatch 16X), hNaV1.3; conditions: HEK293 cells expressing hNaV1.3 + β1 subunit; QPatch 16X; holding −80 mV, step to 0 mV; peptide incubated 2 min; 0.1% BSA; mean, SEM and n (3-12)
T2 construct: host or cells: HEK293
Method: as §1, §2, §3

hNaV1.7 = molecular target: T3, hNaV1.7 (Homo sapiens, UniProt Q15858); assay: Automated whole-cell patch-clamp (QPatch 16X), hNaV1.7; conditions: for IC50: HEK293 cells expressing hNaV1.7 + β1 subunit, QPatch 16X, holding −80 mV, step to 0 mV, peptide incubated 2 min, 0.1% BSA, mean, SEM and n (3-9)
T3 construct: host or cells: HEK293
Method: as §1, §2, §3

T3 sequence (Q15858 whole entry): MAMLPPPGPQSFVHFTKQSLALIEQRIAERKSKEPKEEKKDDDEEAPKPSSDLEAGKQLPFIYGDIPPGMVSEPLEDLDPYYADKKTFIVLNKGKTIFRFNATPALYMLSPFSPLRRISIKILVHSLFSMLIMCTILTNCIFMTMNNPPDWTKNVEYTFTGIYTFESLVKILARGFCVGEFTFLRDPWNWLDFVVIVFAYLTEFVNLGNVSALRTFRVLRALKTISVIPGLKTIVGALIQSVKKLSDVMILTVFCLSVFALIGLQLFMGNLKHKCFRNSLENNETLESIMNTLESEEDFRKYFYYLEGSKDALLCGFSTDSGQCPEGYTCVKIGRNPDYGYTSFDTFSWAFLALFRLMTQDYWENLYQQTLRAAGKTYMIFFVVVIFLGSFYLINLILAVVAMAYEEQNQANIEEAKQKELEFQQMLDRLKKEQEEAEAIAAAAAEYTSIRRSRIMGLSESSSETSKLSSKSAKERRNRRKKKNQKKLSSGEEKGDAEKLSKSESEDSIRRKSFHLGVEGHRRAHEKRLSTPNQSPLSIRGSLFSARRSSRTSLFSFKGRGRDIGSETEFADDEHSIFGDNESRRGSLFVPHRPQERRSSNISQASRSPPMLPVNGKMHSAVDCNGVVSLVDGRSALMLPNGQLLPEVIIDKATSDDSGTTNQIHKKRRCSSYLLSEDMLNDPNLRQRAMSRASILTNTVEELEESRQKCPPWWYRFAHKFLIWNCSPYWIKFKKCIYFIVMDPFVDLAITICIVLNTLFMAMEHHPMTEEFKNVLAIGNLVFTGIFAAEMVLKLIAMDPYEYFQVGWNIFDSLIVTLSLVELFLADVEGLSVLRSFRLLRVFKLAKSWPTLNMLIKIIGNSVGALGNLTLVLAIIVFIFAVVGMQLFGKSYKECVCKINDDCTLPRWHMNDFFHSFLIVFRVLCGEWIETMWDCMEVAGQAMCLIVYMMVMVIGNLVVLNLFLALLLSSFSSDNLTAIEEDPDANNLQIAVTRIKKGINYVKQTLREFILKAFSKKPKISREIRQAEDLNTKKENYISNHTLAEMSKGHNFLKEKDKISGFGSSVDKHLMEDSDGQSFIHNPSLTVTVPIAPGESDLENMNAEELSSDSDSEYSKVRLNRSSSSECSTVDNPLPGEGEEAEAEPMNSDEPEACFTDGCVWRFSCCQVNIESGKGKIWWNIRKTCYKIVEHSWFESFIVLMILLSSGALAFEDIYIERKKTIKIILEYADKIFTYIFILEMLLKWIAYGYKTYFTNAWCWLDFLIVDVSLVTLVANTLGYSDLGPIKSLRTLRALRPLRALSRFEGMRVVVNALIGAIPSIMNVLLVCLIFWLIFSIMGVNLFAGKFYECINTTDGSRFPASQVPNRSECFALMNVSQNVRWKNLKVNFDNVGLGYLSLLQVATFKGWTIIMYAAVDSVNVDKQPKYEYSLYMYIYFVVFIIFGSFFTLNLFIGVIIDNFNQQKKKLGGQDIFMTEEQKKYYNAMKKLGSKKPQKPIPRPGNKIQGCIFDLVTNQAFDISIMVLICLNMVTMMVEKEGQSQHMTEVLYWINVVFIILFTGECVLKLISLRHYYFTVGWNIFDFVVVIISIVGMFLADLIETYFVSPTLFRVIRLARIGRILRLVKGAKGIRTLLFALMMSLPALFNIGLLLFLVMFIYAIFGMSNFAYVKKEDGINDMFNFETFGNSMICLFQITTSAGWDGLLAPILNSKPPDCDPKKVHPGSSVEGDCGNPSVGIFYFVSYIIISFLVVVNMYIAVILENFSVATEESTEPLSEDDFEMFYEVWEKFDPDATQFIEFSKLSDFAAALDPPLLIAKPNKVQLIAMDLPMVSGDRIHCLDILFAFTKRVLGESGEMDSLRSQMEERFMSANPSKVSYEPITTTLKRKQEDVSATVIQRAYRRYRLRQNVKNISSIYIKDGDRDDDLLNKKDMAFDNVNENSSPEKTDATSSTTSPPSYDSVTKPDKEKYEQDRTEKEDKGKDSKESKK
T3 sequence (Q07699 19-218, further chain): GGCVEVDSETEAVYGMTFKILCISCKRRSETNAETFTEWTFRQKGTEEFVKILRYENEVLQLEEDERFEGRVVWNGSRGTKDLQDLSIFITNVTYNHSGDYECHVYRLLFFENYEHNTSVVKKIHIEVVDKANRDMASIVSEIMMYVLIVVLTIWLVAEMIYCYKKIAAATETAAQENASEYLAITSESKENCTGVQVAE
T2 sequence (Q9NY46 whole entry): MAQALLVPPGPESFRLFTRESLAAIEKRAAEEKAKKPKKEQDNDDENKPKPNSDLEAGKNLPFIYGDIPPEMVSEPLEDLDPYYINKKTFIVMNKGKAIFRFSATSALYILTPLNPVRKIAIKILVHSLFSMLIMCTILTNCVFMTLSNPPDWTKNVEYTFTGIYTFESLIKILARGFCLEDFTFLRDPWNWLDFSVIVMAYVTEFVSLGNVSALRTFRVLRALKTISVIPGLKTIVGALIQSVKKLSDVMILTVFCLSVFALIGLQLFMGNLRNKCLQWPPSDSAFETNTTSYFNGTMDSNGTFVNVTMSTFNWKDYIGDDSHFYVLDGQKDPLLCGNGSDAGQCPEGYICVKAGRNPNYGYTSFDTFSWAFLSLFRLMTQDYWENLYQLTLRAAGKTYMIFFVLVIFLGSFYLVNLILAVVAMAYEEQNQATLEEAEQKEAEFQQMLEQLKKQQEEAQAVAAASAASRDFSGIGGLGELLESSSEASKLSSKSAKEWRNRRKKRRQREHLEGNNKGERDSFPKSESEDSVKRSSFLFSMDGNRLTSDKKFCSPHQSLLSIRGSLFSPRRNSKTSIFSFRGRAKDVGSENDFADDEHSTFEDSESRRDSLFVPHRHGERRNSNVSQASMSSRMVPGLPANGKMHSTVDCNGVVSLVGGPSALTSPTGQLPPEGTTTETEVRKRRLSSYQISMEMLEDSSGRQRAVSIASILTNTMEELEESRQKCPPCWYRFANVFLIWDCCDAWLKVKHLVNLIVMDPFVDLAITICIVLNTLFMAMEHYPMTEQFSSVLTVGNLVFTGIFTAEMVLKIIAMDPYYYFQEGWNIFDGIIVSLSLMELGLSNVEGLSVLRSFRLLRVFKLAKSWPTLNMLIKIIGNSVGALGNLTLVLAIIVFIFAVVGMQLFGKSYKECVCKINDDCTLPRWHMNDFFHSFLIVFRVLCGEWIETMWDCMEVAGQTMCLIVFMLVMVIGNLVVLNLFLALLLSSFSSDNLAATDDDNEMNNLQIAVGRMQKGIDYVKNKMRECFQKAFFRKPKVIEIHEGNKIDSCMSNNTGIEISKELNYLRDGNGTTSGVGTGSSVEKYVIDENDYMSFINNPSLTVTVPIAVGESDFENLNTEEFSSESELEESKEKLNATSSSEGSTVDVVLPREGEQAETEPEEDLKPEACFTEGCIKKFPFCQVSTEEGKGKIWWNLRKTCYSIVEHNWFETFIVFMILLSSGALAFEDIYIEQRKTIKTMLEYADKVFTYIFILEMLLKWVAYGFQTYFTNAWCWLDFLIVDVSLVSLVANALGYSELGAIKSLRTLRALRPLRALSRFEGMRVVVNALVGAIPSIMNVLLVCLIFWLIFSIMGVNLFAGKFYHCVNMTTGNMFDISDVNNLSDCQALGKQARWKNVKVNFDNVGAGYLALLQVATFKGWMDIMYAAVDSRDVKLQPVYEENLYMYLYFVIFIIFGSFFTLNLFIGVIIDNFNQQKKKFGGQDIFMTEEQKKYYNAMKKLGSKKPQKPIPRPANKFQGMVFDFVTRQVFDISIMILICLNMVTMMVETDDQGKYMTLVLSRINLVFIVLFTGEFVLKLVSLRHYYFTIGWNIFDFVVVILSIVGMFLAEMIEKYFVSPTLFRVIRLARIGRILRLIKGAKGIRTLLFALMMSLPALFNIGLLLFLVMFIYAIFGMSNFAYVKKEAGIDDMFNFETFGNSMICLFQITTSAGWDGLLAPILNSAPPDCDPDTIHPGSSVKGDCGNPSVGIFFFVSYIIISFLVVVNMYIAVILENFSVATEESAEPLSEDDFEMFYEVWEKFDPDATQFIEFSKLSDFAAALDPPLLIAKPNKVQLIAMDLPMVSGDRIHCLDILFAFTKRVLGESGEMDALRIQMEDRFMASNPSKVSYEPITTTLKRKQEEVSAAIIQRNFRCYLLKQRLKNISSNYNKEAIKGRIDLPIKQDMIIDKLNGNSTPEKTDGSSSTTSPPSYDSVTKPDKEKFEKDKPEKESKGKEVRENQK
T2 sequence (Q07699 19-218, further chain): as the sequence (Q07699 19-218, further chain) above

Row | SMILES | IC50 (hNaV1.2) | IC50 (hNaV1.3) | IC50 (hNaV1.7) | hNaV1.2-selectivity against hNaV1.3 (hNaV1.2; ratio of potencies hNaV1.3 / hNaV1.2) | Loss (reduction) in potency vs rSsp1a at hNaV1.2 (hNaV1.2; relative to wild type rSsp1a) | Loss (reduction) in potency vs rSsp1a at hNaV1.7 (hNaV1.7; relative to wild type rSsp1a)
1 | CC(C)C[C@H](NC(=O)[C@H](CC(=O)O)NC(=O)[C@H](Cc1ccc(O)cc1)NC(=O)[C@H](CCCNC(=N)N)NC(=O)[C@@H]1CSSC[C@@H]2NC(=O)[C@H](CCCCN)NC(=O)[C@H](CC(N)=O)NC(=O)[C@H](CC(N)=O)NC(=O)[C@H](CC(N)=O)NC(=O)[C@@H]3CCCN3C(=O)[C@H](CC(=O)O)NC(=O)[C@@H]3CSSC[C@H](NC(=O)[C@H](C(C)C)NC(=O)[C@H](Cc4ccc(O)cc4)NC(=O)CNC(=O)[C@H](CCC(=O)O)NC(=O)[C@H](CSSC[C@H](NC(=O)[C@H](CC(=O)O)NC(=O)CN)C(=O)N[C@@H](CC(C)C)C(=O)NCC(=O)N[C@@H](Cc4c[nH]c5ccccc45)C(=O)N[C@@H](Cc4ccccc4)C(=O)N[C@@H](CCCCN)C(=O)NCC(=O)N3)NC2=O)C(=O)N[C@@H](Cc2c[nH]cn2)C(=O)N[C@@H](Cc2c[nH]c3ccccc23)C(=O)N[C@@H](CCCCN)C(=O)N[C@@H](Cc2ccc(O)cc2)C(=O)N2CCC[C@H]2C(=O)N[C@@H](Cc2ccccc2)C(=O)N1)C(=O)O [S7K/W28F] (H-GDCLGWFKGCDPNNNKCCEGYVCHWKYPFCRYDL-OH; disulfide 3-18, 10-23, 17-30) | > 3000 nM | > 3000 nM | 1470 nM |  |  | 
2 | CC(C)C[C@H](NC(=O)[C@H](C)NC(=O)[C@H](Cc1ccc(O)cc1)NC(=O)[C@H](CCCNC(=N)N)NC(=O)[C@@H]1CSSC[C@@H]2NC(=O)[C@H](CCCCN)NC(=O)[C@H](CC(N)=O)NC(=O)[C@H](CC(N)=O)NC(=O)[C@H](CC(N)=O)NC(=O)[C@@H]3CCCN3C(=O)[C@H](CC(=O)O)NC(=O)[C@@H]3CSSC[C@H](NC(=O)[C@H](C(C)C)NC(=O)[C@H](Cc4ccc(O)cc4)NC(=O)CNC(=O)[C@H](CCC(=O)O)NC(=O)[C@H](CSSC[C@H](NC(=O)[C@H](CC(=O)O)NC(=O)CN)C(=O)N[C@@H](CC(C)C)C(=O)NCC(=O)N[C@@H](Cc4c[nH]c5ccccc45)C(=O)N[C@@H](Cc4ccccc4)C(=O)N[C@@H](CO)C(=O)NCC(=O)N3)NC2=O)C(=O)N[C@@H](Cc2c[nH]cn2)C(=O)N[C@@H](Cc2c[nH]c3ccccc23)C(=O)N[C@@H](CCCCN)C(=O)N[C@@H](Cc2ccc(O)cc2)C(=O)N2CCC[C@H]2C(=O)N[C@@H](Cc2c[nH]c3ccccc23)C(=O)N1)C(=O)O [D32A] | 110 nM | 221 nM | 118 nM |  |  | 
3 | CC(C)C[C@H](NC(=O)[C@H](CC(=O)O)NC(=O)[C@H](Cc1ccc(O)cc1)NC(=O)[C@H](CCCNC(=N)N)NC(=O)[C@@H]1CSSC[C@@H]2NC(=O)[C@H](CCCCN)NC(=O)[C@H](CC(N)=O)NC(=O)[C@H](CC(N)=O)NC(=O)[C@H](CC(N)=O)NC(=O)[C@@H]3CCCN3C(=O)[C@H](CC(=O)O)NC(=O)[C@@H]3CSSC[C@H](NC(=O)[C@H](C(C)C)NC(=O)[C@H](Cc4ccc(O)cc4)NC(=O)CNC(=O)[C@H](CCC(=O)O)NC(=O)[C@H](CSSC[C@H](NC(=O)[C@H](CC(=O)O)NC(=O)CN)C(=O)N[C@@H](CC(C)C)C(=O)NCC(=O)N[C@@H](Cc4ccccc4)C(=O)N[C@@H](Cc4ccccc4)C(=O)N[C@@H](CO)C(=O)NCC(=O)N3)NC2=O)C(=O)N[C@@H](Cc2c[nH]cn2)C(=O)N[C@@H](Cc2c[nH]c3ccccc23)C(=O)N[C@@H](CCCCN)C(=O)N[C@@H](Cc2ccc(O)cc2)C(=O)N2CCC[C@H]2C(=O)N[C@@H](Cc2c[nH]c3ccccc23)C(=O)N1)C(=O)O [W5F] | 579 nM | > 3000 nM | 1260 nM |  |  | 
4 | CC(C)C[C@H](NC(=O)[C@H](CC(=O)O)NC(=O)[C@H](Cc1ccc(O)cc1)NC(=O)[C@H](CCCNC(=N)N)NC(=O)[C@@H]1CSSC[C@@H]2NC(=O)[C@H](CCCCN)NC(=O)[C@H](CC(N)=O)NC(=O)[C@H](CC(N)=O)NC(=O)[C@H](CC(N)=O)NC(=O)[C@@H]3CCCN3C(=O)[C@H](CC(=O)O)NC(=O)[C@@H]3CSSC[C@H](NC(=O)[C@H](C(C)C)NC(=O)[C@H](Cc4ccc(O)cc4)NC(=O)CNC(=O)[C@H](CCC(=O)O)NC(=O)[C@H](CSSC[C@H](NC(=O)[C@H](CC(=O)O)NC(=O)CN)C(=O)N[C@@H](CC(C)C)C(=O)NCC(=O)N[C@@H](Cc4c[nH]c5ccccc45)C(=O)N[C@@H](Cc4ccccc4)C(=O)N[C@@H](CO)C(=O)N[C@@H](CCCNC(=N)N)C(=O)N3)NC2=O)C(=O)N[C@@H](Cc2c[nH]cn2)C(=O)N[C@@H](Cc2c[nH]c3ccccc23)C(=O)N[C@@H](CCCCN)C(=O)N[C@@H](Cc2ccc(O)cc2)C(=O)N2CCC[C@H]2C(=O)N[C@@H](Cc2c[nH]c3ccccc23)C(=O)N1)C(=O)O [G8R] | 117 nM | 415 nM | 96 nM |  |  | 
5 | CC(C)C[C@H](NC(=O)[C@H](CC(=O)O)NC(=O)[C@H](Cc1ccc(O)cc1)NC(=O)[C@H](CCCNC(=N)N)NC(=O)[C@@H]1CSSC[C@@H]2NC(=O)[C@H](CCCCN)NC(=O)[C@H](CC(N)=O)NC(=O)[C@H](CC(N)=O)NC(=O)[C@H](CC(N)=O)NC(=O)[C@@H]3CCCN3C(=O)[C@H](CC(=O)O)NC(=O)[C@@H]3CSSC[C@H](NC(=O)[C@H](C(C)C)NC(=O)[C@H](Cc4ccc(O)cc4)NC(=O)CNC(=O)[C@H](CCC(=O)O)NC(=O)[C@H](CSSC[C@H](NC(=O)[C@H](CCCCN)NC(=O)CN)C(=O)N[C@@H](CC(C)C)C(=O)NCC(=O)N[C@@H](Cc4c[nH]c5ccccc45)C(=O)N[C@@H](Cc4ccccc4)C(=O)N[C@@H](CO)C(=O)NCC(=O)N3)NC2=O)C(=O)N[C@@H](Cc2c[nH]cn2)C(=O)N[C@@H](Cc2c[nH]c3ccccc23)C(=O)N[C@@H](CCCCN)C(=O)N[C@@H](Cc2ccc(O)cc2)C(=O)N2CCC[C@H]2C(=O)N[C@@H](Cc2c[nH]c3ccccc23)C(=O)N1)C(=O)O [D1K] | 97 nM | 196 nM | 240 nM |  |  | 
6 | CC(C)C[C@H](NC(=O)[C@H](CC(=O)O)NC(=O)[C@H](Cc1ccc(O)cc1)NC(=O)[C@H](CCCNC(=N)N)NC(=O)[C@@H]1CSSC[C@@H]2NC(=O)[C@H](CCCCN)NC(=O)[C@H](CC(N)=O)NC(=O)[C@H](CC(N)=O)NC(=O)[C@H](CC(N)=O)NC(=O)[C@@H]3CCCN3C(=O)[C@H](CC(=O)O)NC(=O)[C@@H]3CSSC[C@H](NC(=O)[C@H](C(C)C)NC(=O)[C@H](Cc4ccc(O)cc4)NC(=O)CNC(=O)[C@H](CCC(=O)O)NC(=O)[C@H](CSSC[C@H](NC(=O)[C@H](CC(=O)O)NC(=O)CN)C(=O)N[C@@H](CC(C)C)C(=O)NCC(=O)N[C@@H](Cc4c[nH]c5ccccc45)C(=O)N[C@@H](Cc4ccccc4)C(=O)N[C@@H](CO)C(=O)NCC(=O)N3)NC2=O)C(=O)N[C@@H](Cc2c[nH]cn2)C(=O)N[C@@H](Cc2c[nH]c3ccccc23)C(=O)N[C@@H](CCCCN)C(=O)N[C@@H](Cc2ccc(O)cc2)C(=O)N[C@@H](CCCCN)C(=O)N[C@@H](Cc2c[nH]c3ccccc23)C(=O)N1)C(=O)O [P27K] | 124 nM | 1520 nM | 108 nM | > 10 fold |  | 
7 | CC(C)C[C@H](NC(=O)[C@H](CC(=O)O)NC(=O)[C@H](Cc1ccc(O)cc1)NC(=O)[C@H](CCCNC(=N)N)NC(=O)[C@@H]1CSSC[C@@H]2NC(=O)[C@H](CCCCN)NC(=O)[C@H](CC(N)=O)NC(=O)[C@H](CC(N)=O)NC(=O)[C@H](CC(N)=O)NC(=O)[C@@H]3CCCN3C(=O)[C@H](CC(=O)O)NC(=O)[C@@H]3CSSC[C@H](NC(=O)[C@H](C(C)C)NC(=O)[C@H](Cc4ccc(O)cc4)NC(=O)CNC(=O)[C@H](CCC(=O)O)NC(=O)[C@H](CSSC[C@H](NC(=O)[C@H](CC(=O)O)NC(=O)CN)C(=O)N[C@@H](CC(C)C)C(=O)NCC(=O)N[C@@H](Cc4c[nH]c5ccccc45)C(=O)N[C@@H](Cc4ccccc4)C(=O)N[C@@H](CO)C(=O)NCC(=O)N3)NC2=O)C(=O)N[C@@H](Cc2c[nH]cn2)C(=O)N[C@@H](Cc2c[nH]c3ccccc23)C(=O)N[C@@H](CCCCN)C(=O)N[C@@H](Cc2ccc(O)cc2)C(=O)N2CCC[C@H]2C(=O)N[C@@H](C)C(=O)N1)C(=O)O [W28A] (H-GDCLGWFSGCDPNNNKCCEGYVCHWKYPACRYDL-OH; disulfide 3-18, 10-23, 17-30 (inferred); N-terminus and C-terminus assumed) | > 3000 nM | > 3000 nM | > 3000 nM |  | ≥ 10 fold | ≥ 10 fold
